{
  "source": "paper PMC10630452",
  "about": "“The tumor-enriched small molecule gambogic amide suppresses glioma by targeting WDR1-dependent cytoskeleton remodeling” (Signal Transduction and Targeted Therapy, 2023)",
  "key": {"[1]": {"test_system": "subcutaneous glioma PDX", "experiment": "Subcutaneous PDX model of glioma (GBM1)", "format": "in vivo, nude mice", "protocol": "(§1) Fig. 2 The BBB permeability and tumor suppressor ability of GA-amide compared with TMZ. GA-amide (a) or TMZ (b) concentration in the tumor area and normal brain tissue following a single injection of GA-amide (10 mg/kg, i.v.) or TMZ (10 mg/kg, i.v.). The data are presented as the means ± SEMs (n = 3). c Western blot analysis of the expression of TrkA in mouse tumor tissues (T) and normal brain tissues (N), n = 4. d Western blot analysis of glycosylated TrkA expression in human normal brain tissues (N) and glioma tissues of different grades. e Time curve of GA-amide and TMZ treatment in a cell viability assay (MTS) in T2-4, GSC2 and T12-1 cells. f–h A PDX mouse model was established, and the mice were treated with vehicle (control, n = 9), 2 mg/kg GA-amide (n = 9), 2 mg/kg GAC (n = 9) or […] TMZ (n = 8) by i.p. injection daily for 10 days. A summary photograph is presented in (f), statistical results in (g) and the body weights of mice in (h); the mean ± SEMs are shown. n.s: P ≥ 0.05, *P < 0.05, **P < 0.01 and ***P < 0.001 compared with the control group by one-way ANOVA at each time point\nMale nude mice aged 5–6 weeks were selected for establishment of the in vivo glioma mouse models. For the PDX models, the tumor sample will be soaked in HBSS solution on ice and transferred from the hospital to the laboratory. Patient-related information was shown in Supplementary Table 4). For the subcutaneous PDX models, the isometric fresh GBM tumor (GBM1) specimens were implanted s.c. into the flank of a nude mouse. Then, the mice were treated with GA-amide (2 mg/kg i.p.), gambogic acid (2 mg/kg i.p.), TMZ (65 mg/kg i.p., Selleck) or vehicle after the tumors grew to 100 mm^3. The mouse body weights were measured, and tumor volumes were calculated using the formula L × W^2/2. After treatment, the xenografts were harvested and photographed."}, "[2]": {"test_system": "GSC2 and U87MG-SLC cells", "experiment": "Combination of GA-amide with Trk inhibitors, cell viability", "format": "cell-based", "details": "48 hours", "protocol": "Supplementary Fig. 5 TrkA was not the functional target for GA-amide to inhibit glioma. a Western blot analyses of the TrkA and p-TrkA expression in GSC2 and U87MG-SLC cells with GA-amide treatment for 4 hours. b Western blot analyses of the p-TrkA expression in GSC2 with GA-amide treatment for different times. c, d The combination effects of GA-amide with GW441756, a TrkA inhibitor, or with K252a, an inhibitor of Trk family in GSC2 (c) and U87MG-SLC (d) (48 hours, n = 3)."}, "[3]": {"experiment": "BBB permeability assay in U87MG-SLC intracranial xenograft mice", "format": "in vivo, mouse", "details": "10 mg/kg i.v., U87MG-SLC intracranial xenograft mice", "protocol": "as §1\nMice bearing U87MG-SLC cell intracranial xenografts were injected with GA-amide (i.v.), and tissues from the brain tumor area and normal brain tissues were collected at different times after injection. […] The diagnostic product ions for GA-amide were detected at m/z 628.3/572.2."}, "[4]": {"test_system": "F-actin", "experiment": "F-actin staining and G-actin/F-actin assay in T2-4 cells", "format": "cell-based", "details": "50 nM jas with 0.3 μM GA-amide", "protocol": "F-actin isolation was performed according to the instructions of the G-actin/F-actin assay (Cytoskeleton, Inc.). Briefly, cells were lysed in LAS2 buffer (Cytoskeleton, Inc.). The lysates were centrifuged (5 min at 1000 rpm) to pellet undisrupted cells, and then 100 µl of the supernatant was ultracentrifuged at 37 °C (100,000 × g) for 1 h to separate F-actin from soluble G-actin. The F-actin pellet was solubilized by incubation in 100 μL of F-actin depolymerization buffer for 1 h. The soluble F-actin and G-actin fractions were subsequently analyzed by immunoblotting with a mouse monoclonal anti-actin antibody (Cytoskeleton, Inc.).\nRepresentative images of three wells are shown, and the scale bar represents 500 μm. h The apoptosis assay was conducted on T2-4 cells treated with DMSO, GA-amide (0.3 μM), jas (50 nM), and jas (50 nM jas was pretreated for 12 hours) in combination with GA-amide (0.3 μM) for 4 hours. The data were presented as the mean ± SEM (n = 3) and analyzed using one-way ANOVA analysis. Statistical significance is denoted as *P <0.05, **P <0.01, and ***P <0.001."}, "[5]": {"details": "60 mg/kg i.p. daily for 10 days"}},
  "data": [
    {"smiles": "CC(C)=CCC[C@]1(C)C=Cc2c(O)c3c(c(CC=C(C)C)c2O1)O[C@]12C(=C[C@@H]4C[C@H]1C(C)(C)O[C@@]2(C/C=C(/C)C(=O)O)C4=O)C3=O", "note": "[GAC, gambogic acid, reference compound]", "values": [
      {"measurement": "tumor volume versus control", "setting": "[1]; 2 mg/kg i.p. daily for 10 days", "value": "significantly decreased compared with those in the control group"}
    ]},
    {"smiles": "Cn1cc(/C=C2\\C(=O)Nc3cccnc32)c2ccccc21", "note": "[GW441756]", "values": [
      {"measurement": "rescue of the inhibitory effect of GA-amide on GSCs", "setting": "[2]", "value": "neither the TrkA inhibitor GW441756 nor the Trk family inhibitor K252a[28] restored the inhibitory effect of GA-amide on GSCs"}
    ]},
    {"smiles": "COC(=O)[C@@]1(O)C[C@H]2O[C@]1(C)n1c3ccccc3c3c4c(c5c6ccccc6n2c5c31)C(=O)NC4", "note": "[K252a]", "values": [
      {"measurement": "rescue of the inhibitory effect of GA-amide on GSCs", "setting": "[2]", "value": "neither the TrkA inhibitor GW441756 nor the Trk family inhibitor K252a[28] restored the inhibitory effect of GA-amide on GSCs"}
    ]},
    {"smiles": "Cn1nnc2c(C(N)=O)ncn2c1=O", "note": "[TMZ, temozolomide, reference compound]", "values": [
      {"measurement": "concentration in the tumor area versus the nontumor area", "setting": "[3]", "value": "no discernible difference in its distribution between these regions"},
      {"measurement": "body weight of mice", "setting": "[1]; [5]", "value": "significantly decreased"},
      {"measurement": "tumor volume versus control", "setting": "[1]; [5]", "value": "significantly decreased compared with those in the control group"}
    ]},
    {"smiles": "C/C1=C\\[C@H](C)C[C@H](C)OC(=O)C[C@H](c2ccc(O)cc2)NC(=O)[C@@H](Cc2c(Br)[nH]c3ccccc23)N(C)C(=O)[C@H](C)NC(=O)[C@@H](C)C1", "note": "[jasplakinolide, reference compound]", "values": [
      {"measurement": "effect of F-actin stabilization on GA-amide induced F-actin depolymerization, invasion inhibition and apoptosis", "setting": "[4]", "value": "significantly reversed"}
    ]}
  ]
}
